Assay results reported in US20230058189A1, “QUINOLIN-4-ONE AND 4(1H)-CINNOLINONE COMPOUNDS AND METHODS OF USING SAME” (Frequency Therapeutics, Inc., priority 2019, published 2023).
Values after ≈ are worked out from the molar mass of the structure shown.

Test: Caco-2 cell permeability assay
Type: in vitro ADME
Settings: human, pH 7.4; Caco-2, Papp (B-A)/Papp (A-B); approximate values
Protocol: A Caco-2 cell permeability assay can be used for in vitro prediction of drug permeability and absorption, an important feature for a compound to be useful for methods described herein. The apparent permeability (Papp) of the compounds of the present disclosure were determined in Caco-2 cells to measure the rate of drug transport per surface area of the cell membrane. Further the efflux ratios of the compounds of the present disclosure were measured in Caco-2 cells to determine the apparent permeability coefficient in basolateral to apical direction with respect to the apparent permeability coefficient in apical to basolateral direction.
50 μL and 25 mL of cell culture medium were added to each well of the Transwell insert and reservoir, respectively. The HTS transwell plates were incubated at 37° C., 5% CO2 for 1 hour before cell seeding. Caco-2 cells were diluted to 6.86×10^5 cells/mL with culture medium and 50 μL of cell suspension were dispensed into the filter well of the 96-well HTS Transwell plate. Cells were cultivated for 14-18 days in a cell culture incubator at 37° C., 5% CO295% relative humidity. Cell culture medium was replaced every other day, beginning no later than 24 hours after initial plating.
Medium was removed from the reservoir and each Transwell insert and replaced with prewarmed fresh culture medium. Transepithelial electrical resistance (TEER) across the monolayer was measured using Millicell Epithelial Volt-Ohm measuring system (Millipore, USA). The Plate was returned to the incubator once the measurement was done. The TEER value was calculated according to the following equation: TEER measurement (ohms)×Area of membrane (cm^2)=TEER value (ohm·cm^2).
To prepare the HBSS (25 mM HEPES, pH 7.4), accurately weigh 5.958 g of HEPES and 0.35 g sodium hydrogen carbonate and add into 900 mL of pure water, then sonicate to dissolve the content. Transfer 100 mL of 10× HBSS into the solution, and place the solution on a stirrer, slowly adjust pH with sodium hydrate to 7.4, following with filtering. Add 6 μL of stock solution (10 mM) of test compound or control compound to 24 μL of DMSO into the same well to obtain 2 mM stock solutions. Transfer 3 μL of 2 mM solution into 597 μL of transport buffer in one 96 well plate to prepare the 10 μM compound working solution. Shake the plate at 1000 rpm for 10 min. The final concentration of DMSO in the incubation system was 0.5%. Metoprolol, erythromycin, and cimetidine were used as control compounds.
Assays can be conducted using Caco-2 cells to assay transport of a compound or composition For example, Caco-2 plates prepared as described above were removed from the incubator. Monolayers were washed twice with pre-warmed HBSS (25 mM HEPES, pH 7.4), then the plates were incubated at 37° C. for 30 minutes. To determine the rate of drug transport in the apical to basolateral direction, 108 μL of the working solution was added to the Transwell insert (apical compartment), and 8 μL sample was immediately transferred from the apical compartment to 72 μL transport buffer and 240 μL of acetonitrile containing IS (100 nM alprazolam, 200 nM caffeine and 100 nM tolbutamide) in a new 96-well plate as the initial donor sample (A-B). The samples were then vortexed at 1000 rpm for 10 minutes. The wells in the receiver plate (basolateral compartment) were filled with 300 μL of transport buffer. To determine the rate of drug transport in the basolateral to apical direction, 308 μL of the working solution were added to the receiver plate wells (basolateral compartment), and 8 μL sample was immediately transferred from the basolateral compartment to 72 μL transport buffer and 240 μL of acetonitrile containing IS (100 nM alprazolam, 200 nM caffeine and 100 nM tolbutamide) into a new 96-well plate as the initial donor sample (B-A), then Vortexed at 1000 rpm for 10 minutes. The Transwell insert (apical compartment) was filled with 100 μL of transport buffer. […]

Compound	efflux ratio at 2 h, 10 µM
CCn1cc(C(=O)O)c(=O)c2c(N)c(F)c(N[C@@H]3CC[C@H]3c3ccccc3)cc21 (relative stereo) [Compound I-13]	0.53
CCn1cc(C(=O)O)c(=O)c2c(N)c(F)c(N[C@@H]3CC[C@@H]3c3ccccc3)cc21 (relative stereo) [Compound I-14]	0.58
CCn1cc(C(=O)O)c(=O)c2c(N)c(F)c(N[C@@H]3C[C@@H]3c3ccccc3)cc21 (relative stereo) [Compound I-23]	0.69
CCn1cc(C(=O)O)c(=O)c2c(N)c(F)c(N3CCC(N[C@@H]4C[C@H]4c4ccccc4)CC3)cc21 (relative stereo) [Compound I-26]	0.85
CCn1cc(C(=O)O)c(=O)c2c(N)c(F)c(N[C@H]3CC[C@H](N[C@@H]4C[C@H]4c4ccccc4)CC3)cc21 (relative stereo) [Compound I-27]	1.96
CCn1cc(C(=O)O)c(=O)c2c(N)c(F)c(N[C@H]3CC[C@@H](N[C@@H]4C[C@H]4c4ccccc4)CC3)cc21 (relative stereo) [Compound I-28]	0.48
CCn1cc(C(=O)O)c(=O)c2c(N)c(F)c(NCCN[C@@H]3C[C@H]3c3ccccc3)cc21 (relative stereo) [Compound I-29]	0.39
Nc1c(F)c(N[C@@H]2C[C@H]2c2ccccc2)c(F)c2c1c(=O)c(C(=O)O)cn2C1CC1 (relative stereo) [Compound I-32]	0.47
CCn1cc(C#N)c(=O)c2c(N)c(F)c(N[C@@H]3C[C@H]3c3ccccc3)cc21 (relative stereo) [Compound I-38]	0.75
CCn1cc(C(=O)O)c(=O)c2c(N)c(F)c(N(C)CCN[C@H]3C[C@@H]3c3ccccc3)cc21 (relative stereo) [Compound I-50]	1.04
CCn1cc(C(=O)O)c(=O)c2c(N)cc(N[C@@H]3C[C@H]3c3ccccc3)cc21 (relative stereo) [Compound I-59]	0.58
CCn1cc(C(=O)O)c(=O)c2c(N)c(F)c(Nc3ccc([C@@H]4C[C@H]4N)cc3)cc21 (relative stereo) [Compound I-62]	38
CCn1cc(C(=O)O)c(=O)c2c(N)c(F)c(NC3CC(N[C@@H]4C[C@H]4c4ccccc4)C3)cc21 (relative stereo) [Compound I-70]	1.2

Same assay, conditions: human, pH 7.4; Caco-2, apical to basolateral, 10 μM, 2 hours; approximate values

Compound	Papp A→B at 2 h, 10 μM [×10⁻⁶ cm/s]
CCn1cc(C(=O)O)c(=O)c2c(N)c(F)c(N[C@@H]3CC[C@H]3c3ccccc3)cc21 (relative stereo) [Compound I-13]	5.5
CCn1cc(C(=O)O)c(=O)c2c(N)c(F)c(N[C@@H]3CC[C@@H]3c3ccccc3)cc21 (relative stereo) [Compound I-14]	8.6
CCn1cc(C(=O)O)c(=O)c2c(N)c(F)c(N[C@@H]3C[C@@H]3c3ccccc3)cc21 (relative stereo) [Compound I-23]	1.1
CCn1cc(C(=O)O)c(=O)c2c(N)c(F)c(N3CCC(N[C@@H]4C[C@H]4c4ccccc4)CC3)cc21 (relative stereo) [Compound I-26]	7.9
CCn1cc(C(=O)O)c(=O)c2c(N)c(F)c(N[C@H]3CC[C@H](N[C@@H]4C[C@H]4c4ccccc4)CC3)cc21 (relative stereo) [Compound I-27]	0.94
CCn1cc(C(=O)O)c(=O)c2c(N)c(F)c(N[C@H]3CC[C@@H](N[C@@H]4C[C@H]4c4ccccc4)CC3)cc21 (relative stereo) [Compound I-28]	3.1
CCn1cc(C(=O)O)c(=O)c2c(N)c(F)c(NCCN[C@@H]3C[C@H]3c3ccccc3)cc21 (relative stereo) [Compound I-29]	9.1
Nc1c(F)c(N[C@@H]2C[C@H]2c2ccccc2)c(F)c2c1c(=O)c(C(=O)O)cn2C1CC1 (relative stereo) [Compound I-32]	4.2
CCn1cc(C#N)c(=O)c2c(N)c(F)c(N[C@@H]3C[C@H]3c3ccccc3)cc21 (relative stereo) [Compound I-38]	1.6
CCn1cc(C(=O)O)c(=O)c2c(N)c(F)c(N(C)CCN[C@H]3C[C@@H]3c3ccccc3)cc21 (relative stereo) [Compound I-50]	9.7
CCn1cc(C(=O)O)c(=O)c2c(N)cc(N[C@@H]3C[C@H]3c3ccccc3)cc21 (relative stereo) [Compound I-59]	6.4
CCn1cc(C(=O)O)c(=O)c2c(N)c(F)c(Nc3ccc([C@@H]4C[C@H]4N)cc3)cc21 (relative stereo) [Compound I-62]	0.82
CCn1cc(C(=O)O)c(=O)c2c(N)c(F)c(NC3CC(N[C@@H]4C[C@H]4c4ccccc4)C3)cc21 (relative stereo) [Compound I-70]	2.4

Test: Thermodynamic aqueous solubility at pH 7.4
Type: physicochemical
Settings: aqueous buffer, thermodynamic from solid, phosphate buffer pH 7.4, 25° C., approximate values, read-out: Concentration (thermodynamic aqueous solubility)
Protocol: The aqueous thermodynamic solubilities of the compounds of the present disclosure were measured at pH 7.4.
Determining suitability for use of a compound, e.g., as a therapeutic agent can include determining the thermodynamic solubility of the compound. An example of this determination follows: Accurately weigh about 1 mg of the powder of each compound into a glass insert vial and phosphate buffer into each vial of a capless Solubility Sample plate with the volume of 1 mL per mg. Next, add one stir stick to each vial and seal with a molded PTDE/SIL 96-Well Plate Cover. Transfer the Solubility Sample plate to an Eppendorf Thermomixer Comfort plate shaker and shake the plate at 25° C. at 1,100 rpm for 24 hours. At the end of the incubation, open the cover and remove the stir sticks using a big magnet and transfer the samples from the Solubility Sample plate into the filter plate. Using the vacuum manifold, all the samples were filtered. An aliquot of 100 μL was transferred from filtrate to a new 96-well plate by addition of 900 μL of a mixture of H2O and acetonitrile containing an internal standard (1:1) (10 fold) and 10 μL of the diluted solution was pipetted into a new 96-well plate by addition of 990 μL of a mixture of H2O and acetonitrile containing internal standard (1:1) (1,000 fold). The dilution factor may be changed according to the solubility value and the LC/MS signal response.
To prepare standards for the assay, accurately weigh about 1 mg of the powder of each compound into a glass insert vial, add DMSO into each vial of the Standard Plate with the volume of 1 mL per mg to obtain the 1 mg/mL STD sample. Aliquots of 10 μL were taken from 1 mg/mL STD sample to a new 96-well plate followed by addition of 990 μL of a mixture of H2O and acetonitrile containing internal standard (1:1) to obtain 10 μg/mL STD and then 10 μL aliquots were taken from 10 μg/mL sample to a new 96-well plate followed by addition of 990 μL of a mixture of H2O and acetonitrile containing internal standard (1:1) to obtain 0.1 μg/mL STD. The concentration of the standard sample may be changed according to the LC/MS signal response.
The samples were analyzed and quantified against the standard of known concentration using LC/MS/MS. The solubility of the test compound was calculated as follows: [Sample]=Area Ratio sample×DF sample×[STD]/Area Ratio STD DF means the dilution factor. Any value of the compounds that is not within the specified limits was rejected and the experiment was repeated.

Compound	solubility thermodynamic at 24 h [µM]
CCn1cc(C(=O)O)c(=O)c2c(N)c(F)c(N[C@@H]3CC[C@H]3c3ccccc3)cc21 (relative stereo) [Compound I-13]	< 1.2
CCn1cc(C(=O)O)c(=O)c2c(N)c(F)c(N[C@@H]3C[C@@H]3c3ccccc3)cc21 (relative stereo) [Compound I-23]	< 0.03
CCn1cc(C(=O)O)c(=O)c2c(N)c(F)c(N[C@H]3CC[C@H](N[C@@H]4C[C@H]4c4ccccc4)CC3)cc21 (relative stereo) [Compound I-27]	4.7 (≈ 2.25 µg/mL)
CCn1cc(C(=O)O)c(=O)c2c(N)c(F)c(N[C@H]3CC[C@@H](N[C@@H]4C[C@H]4c4ccccc4)CC3)cc21 (relative stereo) [Compound I-28]	4 (≈ 1.91 µg/mL)
CCn1cc(C(=O)O)c(=O)c2c(N)c(F)c(NCCN[C@@H]3C[C@H]3c3ccccc3)cc21 (relative stereo) [Compound I-29]	1.93 (≈ 0.819 µg/mL)
Nc1c(F)c(N[C@@H]2C[C@H]2c2ccccc2)c(F)c2c1c(=O)c(C(=O)O)cn2C1CC1 (relative stereo) [Compound I-32]	< 0.08
CCn1cc(C#N)c(=O)c2c(N)c(F)c(N[C@@H]3C[C@H]3c3ccccc3)cc21 (relative stereo) [Compound I-38]	< 0.01
CCn1cc(C(=O)O)c(=O)c2c(N)cc(N[C@@H]3C[C@H]3c3ccccc3)cc21 (relative stereo) [Compound I-59]	< 0.06
CCn1cc(C(=O)O)c(=O)c2c(N)c(F)c(Nc3ccc([C@@H]4C[C@H]4N)cc3)cc21 (relative stereo) [Compound I-62]	54 (≈ 21.4 µg/mL)
CCn1cc(C(=O)O)c(=O)c2c(N)c(F)c(NC3CC(N[C@@H]4C[C@H]4c4ccccc4)C3)cc21 (relative stereo) [Compound I-70]	1.6 (≈ 0.721 µg/mL)
